Measurements taken from patent US20260285850A1, “SUBSTITUTED OXAZOLIDINONES AND IMIDAZOLINONES AS HERBICIDES” (FMC CORPORATION, priority 2023, published 2026).

Legend:
Assay type in all cases: in vivo
[1] = test system: palmer (palmer amaranth, palmer pigweed, Amaranthus palmeri); experiment: Test A postemergence application, visual injury rating 0-100; conditions: Postemergence
Source text: (§1) Seeds of plant species selected from barnyardgrass (Echinochloa crus-galli), blackgrass (Alopecurus myosuroides), corn (Zea mays), foxtail, giant (giant foxtail, Setaria faberi), green foxtail (Setaria viridis), goosegrass (Eleusine indica), kochia (Bassia scoparia), oat, wild (wild oat, Avena fatua), palmer (palmer amaranth, palmer pigweed, Amaranthus palmeri), ragweed (common ragweed, Ambrosia artemisiifolia), ryegrass, Italian (italian ryegrass, Lolium multiflorum), soybean (Glycine max) and wheat (Triticum aestivum) were planted into a blend of loam soil and sand and treated preemergence with a directed soil spray using test chemicals formulated in a non-phytotoxic solvent mixture which included a surfactant.
(§2) At the same time, plants selected from these crops and weed species and also galium (catchweed bedstraw, Galium aparine) and horseweed (Erigeron canadensis) were planted in pots containing the same blend of loam soil and sand and treated with postemergence applications of test chemicals formulated in the same manner. Plants ranged in height from 2 to 10 cm and were in the one- to two-leaf stage for the postemergence treatment. Treated plants and untreated controls were maintained in a greenhouse for 10 days, after which time all treated plants were compared to untreated controls and visually evaluated for injury. Plant response ratings, summarized in Table A, are based on a 0 to 100 scale where 0 is no effect and 100 is complete control. A dash (-) response means no test result.

[2] = test system: wheat (Triticum aestivum); experiment: as above; conditions: Postemergence
Source text: as §1, §2

kochia (Bassia scoparia) [3] = experiment: as above; conditions: Postemergence; for Kochia plant response rating: 1000 g ai/ha, 0 to 100 scale
Source text: as §1, §2

corn (Zea mays) [4] = experiment: as above; conditions: Postemergence
Source text: as §1, §2

[5] = test system: oat, wild (wild oat, Avena fatua); experiment: as above; conditions: Postemergence
Source text: as §1, §2

[6] = test system: blackgrass (Alopecurus myosuroides); experiment: as above; conditions: Postemergence; for Blackgrass plant response rating: 1000 g ai/ha, 0 to 100 scale
Source text: as §1, §2

[7] = test system: barnyardgrass (Echinochloa crus-galli); experiment: as above; conditions: Postemergence; for Barnyardgrass plant response rating: 1000 g ai/ha, 0 to 100 scale
Source text: as §1, §2

[8] = test system: galium (catchweed bedstraw, Galium aparine); experiment: as above; conditions: Postemergence; for Galium plant response rating: 1000 g ai/ha, 0 to 100 scale
Source text: as §1, §2

soybean (Glycine max) [9] = experiment: as above; conditions: Postemergence
Source text: as §1, §2

[10] = test system: ryegrass, Italian (italian ryegrass, Lolium multiflorum); experiment: as above; conditions: Postemergence
Source text: as §1, §2

[11] = test system: ragweed (common ragweed, Ambrosia artemisiifolia); experiment: as above; conditions: Postemergence
Source text: as §1, §2

[12] = test system: horseweed (Erigeron canadensis); experiment: as above; conditions: Postemergence; for Horseweed plant response rating: 1000 g ai/ha, 0 to 100 scale
Source text: as §1, §2

[13] = test system: palmer (palmer amaranth, palmer pigweed, Amaranthus palmeri); experiment: Test A preemergence soil spray, visual injury rating 0-100; conditions: 10 days; for Amaranth, Palmer / Pigweed, Palmer plant response rating (0 to 100 scale): 1000 g ai/ha, 0 = no effect, 100 = complete control
Source text: as §1, §2

[14] = test system: wheat (Triticum aestivum); experiment: as above; conditions: 31 g ai/ha, 0 to 100 scale, 10 days
Source text: as §1, §2

kochia (Bassia scoparia) [15] = experiment: as above; conditions: 10 days; for Kochia plant response rating (0 to 100 scale): 1000 g ai/ha, 0 = no effect, 100 = complete control
Source text: as §1, §2

corn (Zea mays) [16] = experiment: as above; conditions: 31 g ai/ha, 0 to 100 scale, 10 days
Source text: as §1, §2

[17] = test system: oat, wild (wild oat, Avena fatua); experiment: as above; conditions: 31 g ai/ha, 0 to 100 scale, 10 days
Source text: as §1, §2

[18] = test system: blackgrass (Alopecurus myosuroides); experiment: as above; conditions: 31 g ai/ha, 0 to 100 scale, 10 days
Source text: as §1, §2

[19] = test system: barnyardgrass (Echinochloa crus-galli); experiment: as above; conditions: 10 days; for Barnyardgrass plant response rating (0 to 100 scale): 1000 g ai/ha, 0 = no effect, 100 = complete control
Source text: as §1, §2

soybean (Glycine max) [20] = experiment: as above; conditions: 31 g ai/ha, 0 to 100 scale, 10 days
Source text: as §1, §2

[21] = test system: ryegrass, Italian (italian ryegrass, Lolium multiflorum); experiment: as above; conditions: 10 days; for Ryegrass, Italian plant response rating (0 to 100 scale): 1000 g ai/ha, 0 = no effect, 100 = complete control
Source text: as §1, §2

[22] = test system: ragweed (common ragweed, Ambrosia artemisiifolia); experiment: as above; conditions: 31 g ai/ha, 0 to 100 scale, 10 days
Source text: as §1, §2

[23] = test system: green foxtail (Setaria viridis); experiment: Test A postemergence application, visual injury rating 0-100; conditions: Postemergence, 1000 g ai/ha, 0 to 100 scale, 10 days
Source text: as §1, §2

[24] = test system: green foxtail (Setaria viridis); experiment: Test A preemergence soil spray, visual injury rating 0-100; conditions: 1000 g ai/ha, 10 days, 0 = no effect, 100 = complete control
Source text: as §1, §2

[25] = 31 g ai/ha, greenhouse 10 days, 0 no effect, 100 complete control
[26] = 125 g ai/ha, 10 days, 0 is no effect, 100 is complete control

Which “Amaranth, Palmer / Pigweed, Palmer plant response rating (0 to 100 scale)” value (from here on “Amaranth, Palmer / Pigweed”) [1, 25] does the source give for `CC1(C(=O)NC2C=CC(C(=O)NS(=O)(=O)c3ccccc3)C2)CN(c2cc(Cl)cc(Cl)c2)C(=O)O1` (centres unmarked) [Compound 86] here?
Its value is 90.

What about the “Amaranth, Palmer / Pigweed” value [1, 26] of the same compound?
The value was 90.

And the “Wheat plant response rating (0 to 100 scale)” value [2, 25]?
Its value is 60.

And the “Wheat plant response rating (0 to 100 scale)” value [2, 26]?
The value was 80.

What about the “Kochia plant response rating (0 to 100 scale)” value (kochia (Bassia scoparia) [3]; [25]) of the same compound?
The value was 80.

What about the “Kochia plant response rating (0 to 100 scale)” value (kochia (Bassia scoparia) [3]; [26]) of the same compound?
Its value is 90.

And the “Corn plant response rating (0 to 100 scale)” value (corn (Zea mays) [4]; [25])?
The value was 90.

And the “Corn plant response rating (0 to 100 scale)” value (corn (Zea mays) [4]; [26])?
The value was 100.

What about the “Oat, Wild plant response rating (0 to 100 scale)” value [5, 25] of the same compound?
Its value is 60.

And the “Oat, Wild plant response rating (0 to 100 scale)” value [5, 26]?
The value was 90.

What about the “Blackgrass plant response rating (0 to 100 scale)” value [6, 25] of the same compound?
The value was 30.

What about the “Blackgrass plant response rating (0 to 100 scale)” value [6, 26] of the same compound?
Its value is 70.

And the “Barnyardgrass plant response rating (0 to 100 scale)” value [7, 25]?
The value was 90.

And the “Barnyardgrass plant response rating (0 to 100 scale)” value [7, 26]?
The value was 90.

And the “Galium plant response rating (0 to 100 scale)” value [8, 25]?
The value was 70.

What about the “Galium plant response rating (0 to 100 scale)” value [8, 26] of the same compound?
Its value is 80.

What about the “Soybean plant response rating (0 to 100 scale)” value (soybean (Glycine max) [9]; [25]) of the same compound?
The value was 20.

What about the “Soybean plant response rating (0 to 100 scale)” value (soybean (Glycine max) [9]; [26]) of the same compound?
Its value is 60.

What about the “Ryegrass, Italian plant response rating (0 to 100 scale)” value (“Ryegrass … (0 to 100 scale)” for short) [10, 25] of the same compound?
The value was 60.

And the “Ryegrass … (0 to 100 scale)” value [10, 26]?
Its value is 70.

And the “Ragweed plant response rating (0 to 100 scale)” value [11, 25]?
The value was 60.

What about the “Ragweed plant response rating (0 to 100 scale)” value [11, 26] of the same compound?
The value was 80.

And the “Horseweed plant response rating (0 to 100 scale)” value [12, 25]?
The value was 40.

And the “Horseweed plant response rating (0 to 100 scale)” value [12, 26]?
The value was 50.

And the “Amaranth, Palmer (Pigweed, Palmer) plant response rating” value ([13]; 31 g ai/ha, 0 to 100 scale)?
Its value is 70.

And the “Wheat plant response rating” value [14]?
Its value is 0.

What about the “Kochia plant response rating” value (kochia (Bassia scoparia) [15]; 31 g ai/ha, 0 to 100 scale) of the same compound?
Its value is 40.

What about the “Corn plant response rating” value (corn (Zea mays) [16]) of the same compound?
The value was 0.

And the “Oat, Wild plant response rating” value [17]?
The value was 0.

What about the “Blackgrass plant response rating” value [18] of the same compound?
Its value is 0.

And the “Barnyardgrass plant response rating” value ([19]; 31 g ai/ha, 0 to 100 scale)?
Its value is 30.

And the “Soybean plant response rating” value (soybean (Glycine max) [20])?
The value was 0.

What about the “Ryegrass, Italian plant response rating” value ([21]; 31 g ai/ha, 0 to 100 scale) of the same compound?
Its value is 0.

And the “Ragweed plant response rating” value [22]?
Its value is 10.

How did the “Kochia plant response rating” value (kochia (Bassia scoparia) [3]; 10 days) turn out when `CC1(C(=O)NC2C=CC(C(=O)O)C2)CN(c2cc(F)cc(F)c2)C(=O)N1` (centres unmarked) [Compound 179] was run?
The value was 90.

And the “Blackgrass plant response rating” value ([6]; 10 days)?
The value was 100.

And the “Barnyardgrass plant response rating” value ([7]; 10 days)?
The value was 100.

And the “Galium plant response rating” value ([8]; 10 days)?
Its value is 90.

And the “Horseweed plant response rating” value ([12]; 10 days)?
The value was 80.

What about the “Foxtail, Green plant response rating” value [23] of the same compound?
Its value is 90.

And the “Amaranth, Palmer / Pigweed” value [13]?
The value was 60.

And the “Kochia plant response rating (0 to 100 scale)” value (kochia (Bassia scoparia) [15])?
The value was 100.

And the “Barnyardgrass plant response rating (0 to 100 scale)” value [19]?
Its value is 100.

And the “Ryegrass … (0 to 100 scale)” value [21]?
The value was 100.

What about the “Foxtail, Green plant response rating (0 to 100 scale)” value [24] of the same compound?
The value was 100.

What does the source list for `COC(=O)C1C=CC(NC(=O)C2(C)CN(c3cc(F)cc(F)c3)C(=O)N2)C1` (centres unmarked) [Compound 180]?
Kochia plant response rating (kochia (Bassia scoparia) [3]; 10 days): 80; Blackgrass plant response rating ([6]; 10 days): 90; Barnyardgrass plant response rating ([7]; 10 days): 100; Galium plant response rating ([8]; 10 days): 90; Horseweed plant response rating ([12]; 10 days): 90; Foxtail, Green plant response rating [23]: 90; Amaranth, Palmer / Pigweed, Palmer plant response rating (0 to 100 scale) [13]: 100; Kochia plant response rating (0 to 100 scale) (kochia (Bassia scoparia) [15]): 100; Barnyardgrass plant response rating (0 to 100 scale) [19]: 100; Ryegrass, Italian plant response rating (0 to 100 scale) [21]: 100; Foxtail, Green plant response rating (0 to 100 scale) [24]: 100
